In patent US9328138B2 (priority 2011, dated 2016):

Legend:
[1] = molecular target: HCV NS3 protease genotype 3a (3A-1) (Hepatitis C virus genotype 3a, UniProt Q81258); assay: HCV NS3 protease time-resolved fluorescence (TRF) assay, genotype 3a; assay type: biochemical; conditions: Ki 3a
Procedure, shortened: (§1)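 Time-resolved fluorescence, ex 340/em 615 nm, 400 μs delay; IC50 by four-parameter fit. Enzyme preincubated with compound 10 min, then TRF substrate 25 nM final added and reaction run 6 h at RT. Buffer HEPES pH 7.5 with NaCl, glycerol, Triton X-100, DTT, PEG 8000.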

[2] = molecular target: T1, HCV genotype 1b (BK) NS3 modified enzyme with a R155K mutation (Hepatitis C virus genotype 1b, UniProt P26663, R1181K); assay: HCV NS3 protease time-resolved fluorescence (TRF) assay, genotype 1b R155K; assay type: biochemical; conditions: Ki 1b R155K
T1 construct: HCV genotype 1b (BK) NS3 modified enzyme
Procedure, shortened: as §1

[3] = genotype 1b (BK) NS3 R155K, single value
[4] = first of two values printed in the cell (not explained)
[5] = second of two values printed in the cell (not explained)

| Compound | Ki [1] [nM] | Ki [2, 3] [nM] | Ki [2, 4] [nM] | Ki [2, 5] [nM] |
| --- | --- | --- | --- | --- |
| C=C[C@@H]1C[C@]1(NC(=O)[C@@H]1C[C@@H]2CN1C(=O)[C@H](C(C)(C)C)NC(=O)O[C@@H]1C[C@H]1CCCCCc1c(nc3ccccc3c1OCCN1CC(O)C1)O2)C(=O)NS(=O)(=O)C1(C)CC1 [Example 174, (1aR,5S,8S,10R,22aR)-5-tert-butyl-N-[(1R,2S)-2-ethenyl-1-{[(1-methylcyclopropyl)sulfonyl]carbamoyl}cyclopropyl]-17-[2-(3-hydroxyazetidin-1-yl)ethoxy]-3,6-dioxo-1,1a,3,4,5,6,9,10,18,19,20,21,22,22a-tetradecahydro-8H-7,10-methanocyclopropa[18,19][1,10,3,6] dioxadiazacyclononadecino[11,12-b] quinoline-8-carboxamide] | 1.1 | 0.057 |  |  |
| C=C[C@@H]1C[C@]1(NC(=O)[C@@H]1C[C@@H]2CN1C(=O)[C@H](C(C)(C)C)NC(=O)O[C@@H]1C[C@H]1CCCCCc1c(nc3ccccc3c1OCC1CCCN(CC)C1)O2)C(=O)NS(=O)(=O)C1(C)CC1 (stereo partly drawn) [Example 139, (1aR,5S,8S,10R,22aR)-5-tert-butyl-N-[(1R,2S)-2-ethenyl-1-{[(1-methylcyclopropyl)sulfonyl]carbamoyl}cyclopropyl]-17-[(1-ethylpiperidin-3-yl)methoxy]-3,6-dioxo-1,1a,3,4,5,6,9,10,18,19, 20,21,22,22a-tetradeca hydro-8H-7,10-methanocyclopropa[18,19] [1,10,3,6]dioxadiazacyclo nonadecino[11,12-b]quinoline-8-carboxamide] | 0.38 | 0.1 |  |  |
| CCOc1c2c(nc3ccccc13)O[C@@H]1C[C@@H](C(=O)N[C@]3(C(=O)NS(=O)(=O)C4CC4)C[C@H]3CC)N(C1)C(=O)[C@H](C1CCCC1)NC(=O)O[C@@H]1CCC[C@H]1CC/C=C/C2 [Example 2, (3aR,7S,10S,12R,21E,24aS)-7-cyclopentyl-N-{(1R,2R)-1-[(cyclopropylsulfonyl)carbamoyl]-2-ethylcyclopropyl}-19-ethoxy-5,8-dioxo-1,2,3,3a,5,6,7,8,11,12,20,23,24,24a-tetradecahydro-10H-9,12-methanocyclopenta[18,19][1,10,3,6] dioxadiazacyclononadecino[11,12-b] quinoline-10-carboxamide] | 31 | 2.7 |  |  |
| C=C[C@@H]1CC1(NC(=O)[C@@H]1C[C@@H]2CN1C(=O)[C@H](C1CCCCC1)NC(=O)O[C@@H]1C[C@H]1CCCCCc1c(nc3ccccc3c1OCCCN1CCNCC1)O2)C(=O)NS(=O)(=O)C1(C)CC1 (stereo partly drawn) [Example 265, potassium ({(1R,2S)-1-[({(1aR,5S,8S,10R,22aR)-5-cyclohexyl-3,6-dioxo-17-[3-(piperazin-1-yl)propoxy]-1,1a,3,4,5,6,9,10,18,19,20,21,22,22a-tetradecahydro-8H-7,10-methanocyclopropa[18,19][1,10,3,6]dioxadiazacyclononadecino[11,12-b]quinolin-8-yl}carbonyl)amino]-2-ethenylcyclopropyl}carbonyl)[(1-methylcyclopropyl)sulfonyl]azanide] | 1.15 |  | 0.016 | 0.11 |
| C=C[C@@H]1C[C@]1(NC(=O)[C@@H]1C[C@@H]2CN1C(=O)[C@H](C1CCCCC1)NC(=O)O[C@@H]1C[C@H]1CCCCCc1c(nc3c(OC)cccc3c1OCC1CN(C(=O)OC(C)(C)C)C1)O2)C(=O)NS(=O)(=O)C1(C)CC1 [Example 215, tent-butyl 3-[({(1aS,5R,8S,10R,22aR)-5-cyclohexyl-8-[(2-ethenyl-1-{[(1-methylcyclopropyl)sulfonyl]carbamoyl}cyclopropyl)carbamoyl]-13-methoxy-3,6-dioxo-1,1a,3,4,5,6,9,10,18,19,20,21,22,22a-tetradecahydro-8H-7,10-methanocyclopropa[18,19][1,10,3,6]dioxadiazacyclononadecino[11,12-b]quinolin-1'7-yl}oxy)methyl]azetidine-1-carboxylate] | 55 | 1.7 |  |  |
| C=C[C@@H]1C[C@]1(NC(=O)[C@@H]1C[C@@H]2CN1C(=O)[C@H](C(C)(C)C)NC(=O)O[C@@H]1C[C@H]1CCCCCc1c(nc3ccccc3c1OC1CCN(CC3CC3)CC1)O2)C(=O)NS(=O)(=O)C1(C)CC1 [Example 230, (1aR,5S,8S,10R,22aR)-5-tent-butyl-17-{[1-(cyclopropylmethyl)piperidin-4-yl]oxy}-N-[(1R,2S)-2-ethenyl-1-{[(1-methylcyclopropyl)sulfonyl]carbamoyl}cyclopropyl]-3,6-dioxo-1,1a,3,4,5,6,9,10,18,19,20,21,22,22a-tetradecahydro-8H-7,10-methanocyclopropa[18,19][1,10,3,6] dioxadiazacyclononadecino[11,12-b]quinoline-8-carboxamide] | 0.38 | 0.065 |  |  |
| CC1(S(=O)(=O)NC(=O)[C@@]23C[C@H]2/C=C\CCCCC[C@@H]2NC(=O)O[C@@H]4C[C@H]4CCCCCc4c(nc5ccccc5c4OCCN4CCOCC4)O[C@@H]4C[C@@H](C(=O)N3)N(C4)C2=O)CC1 [Example 301, (1aR,5S,11Z,12aS,13aR,16S,19R,31aR)—N-[(1-methylcyclopropyl)sulfonyl]-26-[2-(morpholin-4-yl)ethoxy]-3,15,33-trioxo-1,1a,3,4,5,6,7,8,9,10,12a,13,15,16,18,19,27,28,29,30,31,31a-docosahydro-5,17:16,19-dimethanodicyclopropa[12,13:28,29][1,20,3,14,17]dioxatriazacyclononacosino[21,22-b]quinoline-13a(14H)-carboxamide] | 5.9 | 0.35 |  |  |
| C=C[C@@H]1C[C@]1(NC(=O)[C@@H]1C[C@@H]2CN1C(=O)[C@H](C(C)(C)C)NC(=O)O[C@@H]1CCC[C@H]1CCCCCc1c(nc3ccccc3c1OCCN1CCOCC1)O2)C(=O)NS(=O)(=O)N1CCCCC1 [Example 110, (3aR,7S,10S,12R,24aR)-7-tert-butyl-N-{(1R,2S)-2-ethenyl-1-[(piperidin-1-ylsulfonyl)carbamoyl]cyclopropyl}-19-[2-(morpholin-4-yl)ethoxy]-5,8-dioxo-1,2,3,3a,5,6,7,8, 11,12,20,21,22,23,24,24a-hexadecahydro-10H-9,12-methanocyclopenta[18,19] [1,10,3,6]dioxadiaza-cyclononadecino[11,12-b] quinoline-10-carboxamide] | 488 | 14 |  |  |
| C=C[C@@H]1C[C@]1(NC(=O)[C@@H]1C[C@@H]2CN1C(=O)[C@H](C(C)(C)C)NC(=O)O[C@@H]1C[C@H]1CCCCCc1c(nc3ccccc3c1OC1CC3CCC(C1)N3CC)O2)C(=O)NS(=O)(=O)C1(C)CC1 (single isomer, unassigned) [Example 277] | 0.078 |  | 0.008 | 0.013 |
| C=C[C@@H]1C[C@]1(NC(=O)[C@@H]1C[C@@H]2CN1C(=O)[C@H](C(C)(C)C)NC(=O)O[C@@H]1C[C@H]1CCCCCc1c(nc3c(F)cccc3c1OCCN1CCCCC1)O2)C(=O)NS(=O)(=O)C1(C)CC1 [Example 213, (1aR,5S,8S,10R,22aR)-5-tent-butyl-N-[(1R,2S)-2-ethenyl-1-{[(1-methylcyclopropyl)sulfonyl]carbamoyl}cyclopropyl]-13-fluoro-3,6-dioxo-17-[2-(piperidin-1-yl)ethoxy]-1,1a,3,4,5,6,9,10,18,19,20,21,22,22a-tetradecahydro-8H-7,10-methanocyclopropa[18,19][1,10,3,6] dioxadiazacyclononadecino[11,12-b]quinoline-8-carboxamide] | 3.8 | 0.36 |  |  |
| C=C[C@@H]1C[C@]1(NC(=O)[C@@H]1C[C@@H]2CN1C(=O)[C@H](C1CCCC1)NC(=O)O[C@@H]1CCC[C@H]1CC/C=C/Cc1c(nc3ccc(Br)cc3c1O)O2)C(=O)NS(=O)(=O)C1CC1 [Example 22, (3aR,7S,10S,12R,21E,24aS)-17-bromo-7-cyclopentyl-N-{(1R,2S)-1-[(cyclopropylsulfonyl)carbamoyl]-2-ethenylcyclopropyl}-19-hydroxy-5,8-dioxo-1,2,3,3a,5,6,7,8,11,12,20,23,24,24a-tetradecahydro-10H-9,12-methanocyclopenta[18,19][1,10,3,6]dioxadiazacyclononadecino[11,12-b]quinoline-10-carboxamide] | 9.3 | 0.33 |  |  |
| C=C[C@@H]1C[C@]1(NC(=O)[C@@H]1C[C@@H]2CN1C(=O)[C@H](C1CCCC1)NC(=O)O[C@@H]1CCC[C@H]1CC/C=C/Cc1c(nc3ccccc3c1OCCCN1CCCC(C)(C)C1)O2)C(=O)NS(=O)(=O)C1CC1 [Example 92, (3aR,7S,10S,12R,21E,24aS)-7-cyclo pentyl-N-{(1R,2S)-1-[(cyclopropylsulfonyl)carbamoyl]-2-ethenylcyclopropyl}-19-[3-(3,3-dimethylpiperidin-1-yl)propoxy]-5,8-dioxo-1,2,3,3a,5,6,7,8,11,12,20,23,24,24a-tetradeca hydro-10H-9,12-methano-cyclopenta[18,19][1,10,3,6]dioxa diazacyclononadecino[11,12-b] quinoline-10-carboxamide] | 19 | 1.6 |  |  |
| CC1(S(=O)(=O)NC(=O)[C@@]23C[C@H]2/C=C\CCCCC[C@@H]2NC(=O)O[C@@H]4C[C@H]4CCC/C=C/c4c(nc5ccccc5c4OCCN4CCCC4)O[C@@H]4C[C@@H](C(=O)N3)N(C4)C2=O)CC1 [Example 299, (1aR,5S,11Z,12aS,13aR,16S,19R,27E, 31aR)-N-[(1-methylcyclopropyl)sulfonyl]-3,15,33-trioxo-26-[2-(pyrrolidin-1-yl)ethoxy]-1,1a,3,4,5,6,7,8,9,10,12a,13,15,16,18,19,29, 30,31,31a-icosahydro-5,17:16,19-dimethanodicyclopropa[12,13:28,29][1,20,3, 14,17]dioxatriazacyclononacosino[21,22-b]quinoline-13a(14H)-carboxamide] | 3.8 | 0.19 |  |  |
